Results on 13 compounds are retold here after article PMC12378240, “(+)-/(−)-Ormohenins A and B, two pairs of ormosanine-type enantiomers and their derivatives with neuroprotective activity from Ormosia henryi Prain” (Natural Products and Bioprospecting, 2025).

One test has as its system PC12 cells. The test can be described thus: Neuroprotective activity against Aβ25-35 induced PC12 cell death by MTT assay. In kind it is cell-based. The conditions noted are these: for Cell viability: Aβ25-35-induced cell damage in PC12 cells, control = 1.000, model (Aβ25-35) = 0.633, test concentration not given; for EC50: Rattus norvegicus. As for the experimental part: Meanwhile, all isolated compounds were evaluated for their neuroprotective potency against the Aβ25-35 induced PC12 cell death by MTT assay.
A cell viability assay was conducted to test the cytotoxic effects of the compounds on PC12 cells. Meanwhile, the neuroprotective activity of all compounds against the Aβ25-35 induced PC12 cell death by MTT assay. PC12 cells were divided into four groups: normal control, model, positive control (Resveratrol), and isolates intervention groups (1, 10, 20, 40, 60, 80, 100 μmol/L). Detailed experimental procedures and experimental data can be found in the Supporting Information.
Cell culture. […] The cells were maintained at 37°C in a humidified atmosphere containing 5% CO2. The culture medium was replaced every three days, and the cells were passaged when they reached 70% confluency.
Preparation of Aβ25-35. Aβ25-35 was dissolved in sterile double-distilled water to prepare a 2 mM stock solution. The solution was then incubated at 37°C for 7 days to induce aggregation.
MTT assay for cell viability. PC12 cells were divided into four groups: normal control, model, positive control (Resveratrol), and isolates intervention groups (1, 10, 20, 40, 60, 80, 100 μmol/L). The cells were seeded in 96-well plates at an appropriate density with 200 μL medium per well and were cultured for 24 hours. The positive control and intervention groups were pretreated with different concentrations of drug-containing medium for 2 hours, after which 2 μL of Aβ25-35 was added to each well of the model, positive control, and intervention groups for 24 hours. After the treatment, 20 μL of […] MTT solution was added to each well and incubated for 4 hours. The medium was then removed, and 150 μL of DMSO was added to each well. The plate was shaken until the formazan product was completely dissolved. The absorbance was measured at 570 nm using a spectrophotometer.
(In general: Tetrazolium assays rely on reduction of a dye to a coloured formazan, in cell work by metabolically active cells.)

The target in test [1] is acetylcholinesterase (AChE) (Homo sapiens, UniProt P22303). The test can be described thus: biochemical. As for the experimental part: The first and the main class of drugs currently used for AD are the AChE inhibitors and are widely used for the symptomatic treatment of mild-moderate AD [2]. All alkaloids were screened toward AChE via improved Ellman’s method (Supporting Information).
The compounds were prepared in DMSO and diluted in buffer solution to different concentrations. In a 96-well plate, 140 μL of PBS (pH = 8) buffer, 20 μL of all the sample solutions were transferred in each well, and 20 μL of 0.2 U/mL AChE solution were added. The mixture was incubated at 37°C for 10 minutes. Subsequently, 10 μL of 3 mM 5,5'-dithiobis-(2-nitrobenzoic acid) (DTNB) and 10 μL of 15 mM acetylthiocholine (ATCl) were added, followed by reaction at 37 °C for 20 minutes. […] Each experimental group was set up with three replicate wells, and huperzine A was used as the positive control.

Where [2] appears, read: PC-12, against Aβ25-35-induced PC12 cell damage, MTT, resveratrol as positive control, read-out: EC50 (μM), neuroprotective effect.
Where [3] appears, read: PC-12, read-out: EC50 (μM), neuroprotective effect.

Read-outs that look alike come from different tables or passages of the source.

Chain of acetylcholinesterase (AChE) (P22303 32-614, species assumed): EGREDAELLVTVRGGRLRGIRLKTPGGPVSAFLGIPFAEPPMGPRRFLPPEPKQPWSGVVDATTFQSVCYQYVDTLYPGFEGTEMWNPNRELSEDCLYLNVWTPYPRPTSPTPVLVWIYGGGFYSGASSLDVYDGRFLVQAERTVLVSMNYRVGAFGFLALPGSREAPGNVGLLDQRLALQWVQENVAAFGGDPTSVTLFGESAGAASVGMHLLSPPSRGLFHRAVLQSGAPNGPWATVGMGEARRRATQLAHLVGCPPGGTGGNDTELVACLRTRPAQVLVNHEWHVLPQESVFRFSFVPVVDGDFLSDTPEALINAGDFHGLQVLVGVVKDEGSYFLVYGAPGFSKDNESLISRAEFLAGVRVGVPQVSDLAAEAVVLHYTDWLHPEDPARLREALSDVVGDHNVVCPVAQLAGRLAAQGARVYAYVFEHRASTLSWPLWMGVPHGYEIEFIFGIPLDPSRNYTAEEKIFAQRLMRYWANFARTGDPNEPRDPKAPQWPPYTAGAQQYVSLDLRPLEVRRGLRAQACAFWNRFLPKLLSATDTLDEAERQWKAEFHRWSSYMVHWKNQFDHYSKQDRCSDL

Turning to `CC1N2CCCCC2C23CC(CC4CCCN1C42)C1CCCCN1C3` (racemic) [Compound 1, (±)-Ormohenin A], the Cell viability in the test on PC12 cells (MTT) came out at 0.641 ± 0.009.

Regarding `CC1N2CCCCC2C23CC(CC4CCCN1C42)C1CCCCN1C3` (racemic) [Compound 2, (±)-Ormohenin B], the Cell viability in the test on PC12 cells (MTT) worked out at 0.693 ± 0.024.

Turning to `C1CC[C@H]([C@@]23C[C@H](C[C@H]4CCCN[C@@H]42)[C@@H]2CCCCN2C3)NC1` (racemic) [Compound 5, (±)-18-epiormosanine], the Cell viability with PC12 cells (MTT) came to 0.698 ± 0.032.

As to `C1CC[C@@H]([C@@]23C[C@H](C[C@H]4CCCN[C@@H]42)[C@@H]2CCCCN2C3)NC1` (racemic) [Compound 6, (±)-ormosanine], the Cell viability with PC12 cells (MTT) was 0.704 ± 0.038.

For the compound `CC1N2CCCCC2C23CC(CC4CCCN1C42)C1CCCCN1C3` (single isomer, unassigned; (-)) [Compound 3, (−)-ormohenin C], the Cell viability with PC12 cells (MTT) came out at 0.899 ± 0.061. The EC50 (commonly the concentration giving half of the maximal effect) in the test with PC12 cells (setting [2]) stood at 15.5 µM. In addition, the IC50 (in general, the midpoint of a concentration-inhibition curve) in test [1] (improved Ellman's method, huperzine A as positive control, read-out: AChE inhibitory activity IC50) was 142 ± 19.6 µM.

In the test on PC12 cells (MTT), `C[C@@H]1N2CCCC[C@H]2[C@@]23C[C@H](C=C4CCCN1[C@@H]42)[C@@H]1CCCCN1C3` [Compound 4, (−)-ormohenin D] returned a Cell viability of 0.629 ± 0.013.

In the case of `O=C1CC=C[C@@H]2[C@@H]3C[C@H](CN12)[C@H]1CCCCN1C3` [Compound 7, (6R,7S,9S,11R)-4,5-dehydro-α-isolupanine], the Cell viability with PC12 cells (MTT) is 0.650 ± 0.009.

In the test on PC12 cells (MTT), `O=c1cccc2n1C[C@H]1C[C@@H]2CN2CC=CC[C@@H]12` [Compound 8, (7S,9S,11S)-15,16-dehydroanagyrine] showed a Cell viability of 0.662 ± 0.041.

In the case of `O=C1CCC[C@@H]2[C@@H]3C[C@H](CN12)[C@@H]1CCCCN1C3` [Compound 9, (+)-lupanine], in the test on PC12 cells (MTT), the Cell viability is reported as 0.974 ± 0.065. In addition, the EC50 in the test on PC12 cells (setting [3]) stood at 10.4 µM.

Turning to `O=c1cccc2n1C[C@H]1C[C@@H]2CN2CCCC[C@@H]12` [Compound 10, (+)-anagyrine], in the test with PC12 cells (MTT), the Cell viability was 0.645 ± 0.011.

For `O=C1CCC[C@@H]2[C@@H]3C[C@H](CN12)[C@H]1CCCCN1C3` [Compound 11, (+)-α-isolupanine], the Cell viability with PC12 cells (MTT) amounted to 0.653 ± 0.027.

As to `O=c1cccc2n1C[C@@H]1CNC[C@H]2C1` [Compound 12, (+)-cytisine], the Cell viability in the test on PC12 cells (MTT) is 0.934 ± 0.031. Moreover, the concentration giving a half-maximal response (EC50) in the test with PC12 cells (setting [3]) came to 7.99 µM. The same compound came in with an IC50 in test [1] of 6.85 ± 1.2 µM.

As to `Oc1ccc(/C=C/c2cc(O)cc(O)c2)cc1` [Resveratrol, reference compound], the Cell viability with PC12 cells (MTT) is 0.82 ± 0.039. Further, the EC50 in the test with PC12 cells (setting [2]) was determined as 5.99 µM.
